This note sets out measurements from ChEMBL document CHEMBL5512624, “OSMAC Strategy: A promising way to explore microbial cyclic peptides” (Eur J Med Chem, 2024).

For test [1], the system named is Aspergillus niger. Kind of test: Antifungal activity against Aspergillus niger assessed as fungal growth inhibition. The class given is functional.
For test [2], the system named is Aspergillus fumigatus. Kind of test: Antifungal activity against Aspergillus fumigatus ATCC 46645 assessed as fungal growth inhibition incubated for 24 hrs by CLSI protocol based broth microdilution method. It counts as functional, organism-based. The following applies: ATCC 46645, 24 h.
For test [3], the system named is Influenza A virus. Kind of test: Antiviral activity against Influenza A virus H9N2 infected in MDCK cells assessed as inhibition of viral replication. The class given is functional, organism-based.
Test [4] can be described thus: Inhibition rat liver microsome ACAT. It counts as microsomes.
Test [5] relates to SW480. Kind of test: Cytotoxicity against human SW480 cells assessed as reduction in cell viability incubated for 24 hrs by MTT assay. It counts as functional, cell-based. To be noted: SW480, 24 h.
Test [6] relates to HL-60. Kind of test: Cytotoxicity against human HL-60 cells assessed as reduction in cell viability incubated for 24 hrs by MTT assay. The class given is functional, cell-based. The following applies: HL-60, 24 h.
The subject of test [7] is MCF7. Kind of test: Cytotoxicity against human MCF7 cells assessed as reduction in cell viability incubated for 24 hrs by MTT assay. The class given is functional, cell-based. The following applies: MCF7, 24 h.
The subject of test [8] is Plasmodium falciparum. As to the kind of experiment: Antiplasmodial activity against Plasmodium falciparum 3D7 assessed as reduction in parasite growth incubated for 72 hrs by SYBR Green dye based fluorescence assay. The class given is functional, organism-based. The following applies: 3D7, 72 h.
The test system of test [9] is Trypanosoma cruzi. As to the kind of experiment: Antitrypanosomal activity against Trypanosoma cruzi amastigote assessed as parasite growth inhibition incubated for 24 hrs by light microscopic analysis. It counts as functional, organism-based.
In test [10] the test system is Human alphaherpesvirus 1. Kind of test: Antiviral activity against HSV-1 infected in African green monkey Vero cells by plaque reduction assay. It counts as functional, organism-based. To be noted: Human alphaherpesvirus 1, Vero.

In brackets after ≈: the same amount, converted by molar mass. Numbered stars: 1 amine (or outer) side, 2 acyl side, 3 side chain; on linkers, the order of the positions; unused ones are H or OH. Square brackets hold non-standard residues; d marks the D form. Peptide text beside a SMILES is read from it. X5 = C=C(N[*:1])c1nc(-c2nc(C(=O)[*:2])ccc2-c2nccs2)co1; X1 = CCC(C)CCCCCCCCCCC[C@H](N[*:1])C(=O)[*:2]; X7 = CC(C)CCCCCCCCCCC[C@H](N[*:1])C(=O)[*:2]; X2 = CCC(C)CCCCCCCCC[C@H](N[*:1])C(=O)[*:2]; X6 = CC(C)CCCCCCCCCC[C@H](N[*:1])C(=O)[*:2]; X8 = CCCCCCCCCCCCCC[C@H](N[*:1])C(=O)[*:2]; Gly(Dodecyl) = CCCCCCCCCCCC[C@H](N)C(=O)O; X3 = C/C=C(\N[*:1])c1nc(C(=O)[*:2])co1; X4 = C=C(N[*:1])c1nc(C(=O)[*:2])c(C)o1; NMeY = CN[C@@H](Cc1ccc(O)cc1)C(=O)O; Val(3-OH) = CC(C)(O)[C@H](N)C(=O)O; Dha = C=C(N)C(=O)O

In the case of `CCCCCCCCCCCC[C@@H]1NC(=O)[C@@H]2CCCN2C(=O)[C@H](CCC(N)=O)NC(=O)[C@H](CC(N)=O)NC(=O)[C@H](CO)NC(=O)[C@H](CC(N)=O)NC(=O)[C@H](Cc2ccc(O)cc2)NC(=O)[C@H](CC(N)=O)NC1=O` (cyclo(NQP[Gly(Dodecyl)]NYNS)), in test [1], the minimal inhibitory concentration (MIC) was 3.12 µg/mL (≈ 2.99 µM).

Turning to `CCCCCCC/C=C/C=C/C=C/[C@H](C[C@H](O)C[C@@H]1CC(=O)NC[C@@H](C)C(=O)N[C@@H](C[C@H](O)CO)C(=O)N[C@H](CC(N)=O)C(=O)N[C@@H](C[C@H](O)CO)C(=O)N1)OC`, the IC50 in test [2] was 4 µM.

With `CC(C)CCCCCCCCCC[C@@H]1NC(=O)[C@@H]2CCCN2C(=O)[C@H](CCC(N)=O)NC(=O)[C@H](CC(N)=O)NC(=O)[C@H](CO)NC(=O)[C@H](CC(N)=O)NC(=O)[C@H](Cc2ccc(O)cc2)NC(=O)[C@H](CC(N)=O)NC1=O` (cyclo(NQP[X6]NYNS)), in [1], the MIC was 3.12 µg/mL (≈ 2.95 µM).

Take `C=C(NC(=O)c1nc(C(=C)NC(=O)[C@@H](NC(=O)C(=C)NC(=O)c2coc(/C(=C/C)NC(=O)[C@@H](NC(C)=O)[C@@H](C)O)n2)C(C)C)oc1C)C(=O)NC(=C)c1nc(-c2nc(C(N)=O)ccc2-c2nccs2)co1`: the IC50 in test [3] turned out to be 28.7 µM.

As for `CC(C)CCCCCCCCCCC[C@@H]1NC(=O)[C@@H]2CCCN2C(=O)[C@H](CCC(N)=O)NC(=O)[C@H](CC(N)=O)NC(=O)[C@H](CO)NC(=O)[C@H](CC(N)=O)NC(=O)[C@H](Cc2ccc(O)cc2)NC(=O)[C@H](CC(N)=O)NC1=O` (cyclo(NQP[X7]NYNS)), the MIC in [1] was determined as 3.12 µg/mL (≈ 2.91 µM).

For the compound `CC(C)[C@H]1OC(=O)[C@H](Cc2ccccc2)N(C)C(=O)[C@@H](C(C)C)OC(=O)[C@H](Cc2ccccc2)N(C)C(=O)[C@@H](C(C)C)OC(=O)[C@H](Cc2ccccc2)N(C)C1=O`, the IC50 in [4] was 3 µM.

As to `CCC(C)CCCCCCCCC[C@@H]1NC(=O)[C@@H]2CCCN2C(=O)[C@H](CCC(N)=O)NC(=O)[C@H](CC(N)=O)NC(=O)[C@H](CO)NC(=O)[C@H](CC(N)=O)NC(=O)[C@H](Cc2ccc(O)cc2)NC(=O)[C@H](CC(N)=O)NC1=O` (some centres not stated) (cyclo(NQP[X2]NYNS)), the minimal inhibitory concentration (MIC) in test [1] came to 3.12 µg/mL (≈ 2.95 µM).

As for `CCC(C)CCCCCCCCCCC[C@@H]1NC(=O)[C@@H]2CCCN2C(=O)[C@H](CCC(N)=O)NC(=O)[C@H](CC(N)=O)NC(=O)[C@H](CO)NC(=O)[C@H](CC(N)=O)NC(=O)[C@H](Cc2ccc(O)cc2)NC(=O)[C@H](CC(N)=O)NC1=O` (some centres not stated) (cyclo(NQP[X1]NYNS)), the MIC in [1] came to 3.12 µg/mL (≈ 2.87 µM).

As for `C=C(NC(=O)C(=C)NC(=O)c1ccc(-c2nccs2)c(-c2coc(C(=C)NC(=O)C(=C)NC(=O)c3nc(C(=C)NC(=O)[C@@H](NC(=O)C(=C)NC(=O)c4coc(/C(=C/C)NC(=O)[C@@H](NC(C)=O)[C@@H](C)O)n4)C(C)(C)O)oc3C)n2)n1)C(N)=O` (Ac-T[X3][Dha][Val(3-OH)][X4][Dha][X5][Dha][Dha]-NH2), in test [3], the IC50 was 15.3 µM.

On to `CCCCCCC/C=C/C=C/C=C/[C@H](C[C@H](O)C[C@H]1NC(=O)[C@H](C[C@H](O)CO)NC(=O)[C@@H](CC(N)=O)NC(=O)[C@H](CC(N)=O)NC(=O)[C@H](C)CNC(=O)[C@H]1O)OC`, for which the IC50 in test [2] was found to be 4 µM.

Take `CCCCCCC/C=C/C=C/C=C/[C@H](C[C@H](O)C[C@H]1NC(=O)[C@H](C[C@H](O)C(C)O)NC(=O)[C@@H](CC(N)=O)NC(=O)[C@H](CC(N)=O)NC(=O)[C@H](C)CNC(=O)[C@H]1O)OC` (some centres not stated): the IC50 in test [2] is 4 µM.

Consider `CC[C@H](C)[C@@H]1NC(=O)[C@@H]2[C@H](C)CCN2C(=O)[C@H](C[C@H](O)CCl)OC(=O)CCNC(=O)[C@@H](C)N(C)C(=O)[C@H]([C@@H](C)CC)N(C)C1=O`, for which the figures for the half-maximal inhibitory concentration (IC50) in test [5], in test [6] and in test [7] were 0.107 µM, 0.149 µM and 0.079 µM, respectively.

For the compound `C=C(NC(=O)c1ccc(-c2nccs2)c(-c2coc(C(=C)NC(=O)C(=C)NC(=O)c3nc(C(=C)NC(=O)[C@@H](NC(=O)C(=C)NC(=O)c4coc(/C(=C/C)NC(=O)[C@@H](NC(C)=O)[C@@H](C)O)n4)C(C)(C)O)oc3C)n2)n1)C(N)=O` (Ac-T[X3][Dha][Val(3-OH)][X4][Dha][X5][Dha]-NH2), the IC50 in [3] was 7.3 µM.

With `CCCCCCC/C=C/C=C/C=C/[C@H](C[C@H](O)C[C@H]1NC(=O)[C@H](C[C@H](O)CO)NC(=O)[C@@H](CC(N)=O)NC(=O)[C@H](C[C@H](O)CO)NC(=O)[C@H](C)CNC(=O)[C@H]1O)OC`, the IC50 in test [2] is 4 µM.

As for `CCCCCCC/C=C/C=C/C=C/[C@H](C[C@H](O)C[C@@H]1CC(=O)NC[C@@H](C)C(=O)N[C@@H](CC(N)=O)C(=O)N[C@H](CC(N)=O)C(=O)N[C@@H](C[C@H](O)CO)C(=O)N1)OC`, the 50% inhibitory concentration (IC50) in [2] was determined as 4 µM.

Consider `CCCCCCCCCCCCCC[C@@H]1NC(=O)[C@@H]2CCCN2C(=O)[C@H](CCC(N)=O)NC(=O)[C@H](CC(N)=O)NC(=O)[C@H](CO)NC(=O)[C@H](CC(N)=O)NC(=O)[C@H](Cc2ccc(O)cc2)NC(=O)[C@H](CC(N)=O)NC1=O` (cyclo(NQP[X8]NYNS)), for which the minimum inhibitory concentration (MIC) in test [1] was found to be 3.12 µg/mL (≈ 2.91 µM).

As for `COc1ccc2c3c([nH]c2c1)[C@H](C=C(C)C)N1C(=O)[C@@H]2CCCN2C(=O)[C@@H]1C3` [FUMITREMORGIN], the concentration for half-maximal inhibition (IC50) is 2.3 µM in [8] and 9.6 µM in [9].

On to `C=C(NC(=O)C(=C)NC(=O)c1ccc(-c2nccs2)c(-c2coc(C(=C)NC(=O)C(=C)NC(=O)c3nc(C(=C)NC(=O)[C@@H](NC(=O)C(=C)NC(=O)c4coc(/C(=C/C)NC(=O)[C@@H](NC(C)=O)[C@@H](C)O)n4)C(C)C)oc3C)n2)n1)C(N)=O` (Ac-T[X3][Dha]V[X4][Dha][X5][Dha][Dha]-NH2), for which, in test [3], the IC50 was found to be 18.3 µM.

`COc1ccc(C[C@@H]2NC(=O)[C@@H]3CCCN3C(=O)[C@H](C(C)C)NC(=O)[C@H](Cc3ccc(O)cc3)N(C)C(=O)[C@H](Cc3ccc(OC)cc3)NC2=O)cc1` (cyclo([NMeY]VPY(Me)Y(Me))): the IC50 in [10] worked out at 9.5 µM.
